Where “and” joins values, the source holds several entries; their conditions need not be identical. Equal entries are not always repeated. Inconclusive results and toxic doses are left out. Peptide text beside a SMILES is read from it. * marks the point of attachment. Trt = c1ccc(C(c2ccccc2)(c2ccccc2)*)cc1; Cbz = O=C(OCc1ccccc1)*; Bz = O=C(c1ccccc1)*
Test system: P388 leukemia ip, CD2F1 mice, survival T/C
Experiment: NCI In Vivo Anticancer Drug Screen. Data for tumor model P388 Leukemia (intraperitoneal) in CD2F1 (CDF1) mice
Settings: endpoint: median survival time, higher = longer survival
Method in brief: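 Mice carrying the transplanted tumor received test compound or vehicle. Survival was recorded in each group, and the value is the treated-group measurement divided by that of the vehicle-treated control group.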

[1] = dose: 50.0 mg/kg/injection, schedule: Q01DX009 (ip), vehicle: saline
[2] = dose: 100.0 mg/kg/injection, schedule: Q01DX009 (ip), vehicle: saline
[3] = dose: 50.0 mg/kg/injection, schedule: Q01DX005 (ip), vehicle: saline with Tween-80
[4] = dose: 100.0 mg/kg/injection, schedule: Q01DX005 (ip), vehicle: saline with Tween-80
[5] = dose: 200.0 mg/kg/injection, schedule: Q01DX005 (ip), vehicle: saline with Tween-80
[6] = dose: 10.0 mg/kg/injection, schedule: Q01DX009 (ip), vehicle: saline with Tween-80
[7] = dose: 12.5 mg/kg/injection, schedule: Q01DX009 (ip), vehicle: water
[8] = dose: 25.0 mg/kg/injection, schedule: Q01DX005 (ip), vehicle: saline with Tween-80
[9] = dose: 100.0 mg/kg/injection, schedule: Q01DX001 (ip), vehicle: Klucel (hydroxypropylcellulose) (HPC)
[10] = dose: 200.0 mg/kg/injection, schedule: Q01DX001 (ip), vehicle: Klucel (hydroxypropylcellulose) (HPC)
[11] = dose: 400.0 mg/kg/injection, schedule: Q01DX001 (ip), vehicle: Klucel (hydroxypropylcellulose) (HPC)

Cc1ccc(S(=O)(=O)N2C(=N)C(=S)N(C)C2=O)cc1
T/C (dose: 60.0 mg/kg/injection, schedule: Q01DX005 (ip), vehicle: Klucel + Tween-80): 101 % of control | T/C (dose: 120.0 mg/kg/injection, schedule: Q01DX005 (ip), vehicle: Klucel + Tween-80): 111 % of control | T/C (dose: 240.0 mg/kg/injection, schedule: Q01DX005 (ip), vehicle: Klucel + Tween-80): 114 % of control

Nc1ccc[nH]c1=O
T/C (dose: 12.5 mg/kg/injection, schedule: Q01DX009 (ip), vehicle: saline): 100 % of control and 113 % of control | T/C (dose: 25.0 mg/kg/injection, schedule: Q01DX009 (ip), vehicle: saline): 103 % of control | T/C [1]: 98 % of control and 103 % of control | T/C [2]: 103 % of control and 113 % of control | T/C (dose: 400.0 mg/kg/injection, schedule: Q01DX009 (ip), vehicle: saline): 100 % of control

CC12CC3(Nc4ccccc4C3(C)O)OC1(C)c1ccccc1N2 (centres undefined)
T/C [3]: 95 % of control | T/C [4]: 92 % of control | T/C [5]: 92 % of control

Cc1[nH]ccc2c(C)c3nc4ccc(O)cc4c3cc12
T/C (dose: 40.0 mg/kg/injection, schedule: Q04DX002 (ip), vehicle: water): 157 % of control

COC1=CC(=O)C(O)=C/C1=C\C=C\c1ccccc1
T/C (dose: 2.5 mg/kg/injection, schedule: Q01DX009 (ip), vehicle: saline with Tween-80): 107 % of control | T/C (dose: 5.0 mg/kg/injection, schedule: Q01DX009 (ip), vehicle: saline with Tween-80): 104 % of control | T/C [6]: 110 % of control

O=C1CN(CCN2CCCCC2)CC(=O)N2CCCCN12
T/C [3]: 102 % of control | T/C [4]: 107 % of control

COc1cc2ccc3cnccc3c2cc1OC
T/C [7]: 99 % of control | T/C (dose: 25.0 mg/kg/injection, schedule: Q01DX009 (ip), vehicle: water): 99 % of control | T/C (dose: 50.0 mg/kg/injection, schedule: Q01DX009 (ip), vehicle: water): 103 % of control | T/C (dose: 100.0 mg/kg/injection, schedule: Q01DX009 (ip), vehicle: water): 99 % of control | T/C (dose: 200.0 mg/kg/injection, schedule: Q01DX009 (ip), vehicle: water): 113 % of control

COC(=O)C(CSC(=O)c1ccccc1)NC(=O)CNC(=O)CNC(=O)C(CCCCNC(=O)OCc1ccccc1)NC(=O)CNC(=O)C(CSC(c1ccccc1)(c1ccccc1)c1ccccc1)NC(=O)OCc1ccccc1 (centres undefined) (Cbz-C(Trt)GK(Cbz)GGC(Bz)-OMe; configuration not given here)
T/C (dose: 60.0 mg/kg/injection, schedule: Q01DX005 (ip), vehicle: Klucel (hydroxypropylcellulose) (HPC)): 97 % of control | T/C (dose: 120.0 mg/kg/injection, schedule: Q01DX005 (ip), vehicle: Klucel (hydroxypropylcellulose) (HPC)): 97 % of control | T/C (dose: 240.0 mg/kg/injection, schedule: Q01DX005 (ip), vehicle: Klucel (hydroxypropylcellulose) (HPC)): 88 % of control

CCN(CC)CCNc1cc(Nc2ccc([N+](=O)[O-])cc2)ccc1OC
T/C (dose: 12.5 mg/kg/injection, schedule: Q01DX005 (ip), vehicle: saline with Tween-80): 108 % of control | T/C [8]: 106 % of control | T/C [3]: 99 % of control | T/C [5]: 87 % of control

O=C1NC(O)(c2ccccc2)c2cnncc21 (centres undefined)
T/C (dose: 60.0 mg/kg/injection, schedule: Q01DX005 (ip), vehicle: saline with Tween-80): 90 % of control | T/C (dose: 120.0 mg/kg/injection, schedule: Q01DX005 (ip), vehicle: saline with Tween-80): 93 % of control | T/C (dose: 240.0 mg/kg/injection, schedule: Q01DX005 (ip), vehicle: saline with Tween-80): 93 % of control

CCN(CC)CCOC(=O)c1ccc(NC(=S)Nc2ccccc2)cc1
T/C [3]: 98 % of control | T/C [4]: 90 % of control

CC(=O)OCc1c(Cl)nc2sccn12
T/C [9]: 104 % of control and 108 % of control | T/C [10]: 109 % of control and 117 % of control

CCCCC1=C([Si](C)(C)C)C(=O)c2ccccc2C1=O
T/C (dose: 25.0 mg/kg/injection, schedule: Q01DX005 (ip), vehicle: Klucel (hydroxypropylcellulose) (HPC)): 109 % of control | T/C (dose: 50.0 mg/kg/injection, schedule: Q01DX005 (ip), vehicle: Klucel (hydroxypropylcellulose) (HPC)): 110 % of control and 111 % of control and 113 % of control | T/C (dose: 100.0 mg/kg/injection, schedule: Q01DX005 (ip), vehicle: Klucel (hydroxypropylcellulose) (HPC)): 115 % of control and 86 % of control | T/C (dose: 200.0 mg/kg/injection, schedule: Q01DX005 (ip), vehicle: Klucel (hydroxypropylcellulose) (HPC)): 110 % of control and 118 % of control

N#C/C(=C\c1ccccc1)CN1CCCCC1
T/C (dose: 100.0 mg/kg/injection, schedule: Q01DX001 (ip), vehicle: saline with Tween-80): 110 % of control | T/C (dose: 200.0 mg/kg/injection, schedule: Q01DX001 (ip), vehicle: saline with Tween-80): 122 % of control

O=C1NC(=O)C(c2ccccc2)(c2ccccc2)N1CCS
T/C (dose: 12.5 mg/kg/injection, schedule: Q04DX003 (ip), vehicle: saline): 108 % of control | T/C (dose: 25.0 mg/kg/injection, schedule: Q04DX003 (ip), vehicle: Klucel (hydroxypropylcellulose) (HPC)): 98 % of control and 108 % of control | T/C (dose: 25.0 mg/kg/injection, schedule: Q04DX003 (ip), vehicle: saline): 100 % of control | T/C (dose: 50.0 mg/kg/injection, schedule: Q04DX003 (ip), vehicle: Klucel (hydroxypropylcellulose) (HPC)): 98 % of control and 99 % of control | T/C (dose: 50.0 mg/kg/injection, schedule: Q04DX003 (ip), vehicle: saline): 104 % of control | T/C (dose: 100.0 mg/kg/injection, schedule: Q04DX003 (ip), vehicle: Klucel (hydroxypropylcellulose) (HPC)): 97 % of control | T/C (dose: 100.0 mg/kg/injection, schedule: Q04DX003 (ip), vehicle: saline): 108 % of control | T/C (dose: 200.0 mg/kg/injection, schedule: Q04DX003 (ip), vehicle: Klucel (hydroxypropylcellulose) (HPC)): 100 % of control and 117 % of control | T/C (dose: 200.0 mg/kg/injection, schedule: Q04DX003 (ip), vehicle: saline): 94 % of control | T/C (dose: 400.0 mg/kg/injection, schedule: Q04DX003 (ip), vehicle: Klucel (hydroxypropylcellulose) (HPC)): 106 % of control and 109 % of control

CSC(=S)N/N=C/c1nccc(-c2ccccc2)c1C
T/C [1]: 97 % of control | T/C [2]: 108 % of control | T/C (dose: 200.0 mg/kg/injection, schedule: Q01DX009 (ip), vehicle: saline): 96 % of control

CCOC(=O)c1nc(C)[nH]c1C
T/C (dose: 50.0 mg/kg/injection, schedule: Q01DX009 (ip), vehicle: Klucel (hydroxypropylcellulose) (HPC)): 100 % of control | T/C (dose: 100.0 mg/kg/injection, schedule: Q01DX009 (ip), vehicle: Klucel (hydroxypropylcellulose) (HPC)): 95 % of control | T/C (dose: 200.0 mg/kg/injection, schedule: Q01DX009 (ip), vehicle: Klucel (hydroxypropylcellulose) (HPC)): 100 % of control

CC(C)=CCC(OC(=O)C=C(C)C)C1=CC(=O)c2c(O)ccc(O)c2C1=O (centres undefined)
T/C (dose: 1.56 mg/kg/injection, schedule: Q01DX009 (ip), vehicle: water): 108 % of control | T/C (dose: 3.12 mg/kg/injection, schedule: Q01DX009 (ip), vehicle: water): 107 % of control | T/C (dose: 6.25 mg/kg/injection, schedule: Q01DX009 (ip), vehicle: water): 117 % of control | T/C [6]: 110 % of control | T/C (dose: 10.0 mg/kg/injection, schedule: Q04DX003 (ip), vehicle: saline with Tween-80): 109 % of control | T/C [7]: 119 % of control | T/C (dose: 20.0 mg/kg/injection, schedule: Q01DX009 (ip), vehicle: saline with Tween-80): 110 % of control | T/C (dose: 20.0 mg/kg/injection, schedule: Q04DX003 (ip), vehicle: saline with Tween-80): 90 % of control | T/C (dose: 40.0 mg/kg/injection, schedule: Q04DX003 (ip), vehicle: saline with Tween-80): 104 % of control

CC(C)c1cccc(C2(C)C(=O)c3ccccc3C2=O)c1
T/C (dose: 100.0 mg/kg/injection, schedule: Q04DX002 (ip), vehicle: saline): 99 % of control | T/C (dose: 200.0 mg/kg/injection, schedule: Q04DX002 (ip), vehicle: saline): 102 % of control | T/C (dose: 400.0 mg/kg/injection, schedule: Q04DX002 (ip), vehicle: saline): 100 % of control

ClC1=CC(=N/Br)/C=CC/1=N/Br
T/C [3]: 99 % of control and 101 % of control and 107 % of control | T/C [4]: 100 % of control and 103 % of control and 97 % of control | T/C [5]: 106 % of control and 108 % of control and 120 % of control

C#CC(O)C1CC1 (centres undefined)
T/C (dose: 100.0 mg/kg/injection, schedule: Q01DX001 (ip), vehicle: saline + Tween-80 + alcohol): 101 % of control

[O-][n+]1c(Cl)c(Cl)[n+]([O-])c2[nH]c(C(F)(F)F)nc21
T/C [8]: 103 % of control | T/C [3]: 96 % of control | T/C [4]: 102 % of control | T/C [5]: 90 % of control and 96 % of control

O=C1C(Br)CCC1(c1ccccc1)c1ccccc1 (centres undefined)
T/C [9]: 102 % of control | T/C [10]: 106 % of control | T/C [11]: 102 % of control

NC(=S)N/N=C/c1c(Br)nc2sccn12
T/C [9]: 97 % of control | T/C [10]: 89 % of control | T/C [11]: 89 % of control

Reference: PubChem BioAssay AID330 (DTP/NCI, 2004)
